Measurements reported in patent publication US20040191115A1 (priority 2003, published 2004).
Several values for one entry are separate records, joined by “and”; a condition that tells them apart may be missing. Equal values may be shown once. Read-outs that look alike come from different tables or passages of the source.

Legend:
[1] = system: bacillus atrophaeus spores; conditions: 3.12 percent H2O2, no machine operation, without cartons; for average count of colony forming units for the time period / log of average count for the time period: mean of samples
Method: (§1) Studies were conducted to determine the microbial eradication on mandrels 34 that were subjected to vaporized sterilant introduced at the heaters 40. […] The efficacy of the mandrel sterilization was studied for both the mandrel caps 35 and the mandrel side tubes 37 (see FIG. 3).
(§2) Each of the studies was further carried out using a testing media of bacillus atrophaeus spores for inoculating the mandrels. The mandrels were inoculated by spraying, using an aerating spray bottle having a solution with a concentration of about 7 log bacillus spores. The mandrels were then allowed to air dry. Controls were swabbed using cotton swabs to assure that the mandrels were properly inoculated. Following the machine operating period of the test, the mandrels were swabbed and the bacillus spores transferred to an agar media for incubation of the spores (at 32° C. for 48 hours) and subsequent recovery.
In this part of the analysis, the form, fill and seal machine was operated without cartons and without indexing (rotation) of the mandrels.

[2] = system: bacillus atrophaeus spores; conditions: normal machine operation, cartons running
Method: as §1, §2

[3] = system: bacillus atrophaeus spores; conditions: 2.59 percent H2O2, slow speed, without cartons; for average count of colony forming units for the time period / log of average count for the time period: mean of samples
Method: as §1, §2
The data was collected by taking swab samples at the mandrel cap 35 (represented by C in the Table) and on the mandrel side tubes 37 (represented by T in the Table).

[4] = 16.76 percent H2O2, time 10 min
[5] = 16.76 percent H2O2, time 15 min
[6] = 16.76 percent H2O2, time 20 min
[7] = 16.76 percent H2O2, time 30 min
[8] = time 0 min, swab site C (mandrel cap)
[9] = time 0 min, swab site T (mandrel side tubes)
[10] = time 15 min, swab site C (mandrel cap)
[11] = time 15 min, swab site T (mandrel side tubes)
[12] = time 30 min, swab site C (mandrel cap)
[13] = time 30 min, swab site T (mandrel side tubes)
[14] = time 45 min, swab site C (mandrel cap)
[15] = time 45 min, swab site T (mandrel side tubes)
[16] = time 60 min, swab site C (mandrel cap)
[17] = time 60 min, swab site T (mandrel side tubes)

## OO [hydrogen peroxide]
[1]; time 0 min
  average count of colony forming units for the time period: 3.51E+05 CFU/mandrel
  log of average count for the time period: 5.55 log
[1]; time 15 min
  average count of colony forming units for the time period: 2.90E+05 CFU/mandrel
  log of average count for the time period: 5.46 log
  Average CFU/mL: 7.85E+04 CFU/mL and 6.65E+04 CFU/mL
  Average CFU/mandrel: 3.14E+05 CFU/mandrel and 2.66E+05 CFU/mandrel
  Log (of Average CFU/mandrel): 5.50 Log and 5.42 Log
  Result #1 CFU/mL: 7.80E+04 CFU/mL and 4.70E+04 CFU/mL
  Result #2 CFU/mL: 7.90E+04 CFU/mL and 8.60E+04 CFU/mL
[1]; time 15 min relative to time zero
  Log Red. (Avg.): 0.08 Log
[1]; time 30 min
  average count of colony forming units for the time period: 2.72E+05 CFU/mandrel
  log of average count for the time period: 5.43 log
  Log (of Average CFU/mandrel): 5.47 Log and 5.28 Log and 5.49 Log
  Result #1 CFU/mL: 7.40E+04 CFU/mL and 4.30E+04 CFU/mL and 7.80E+04 CFU/mL
[1]; time 30 min relative to time zero
  Log Red. (Avg.): 0.11 Log
[2]; 3.12 percent H2O2, time 0 min
  Microbial Load (CFU/mandrel): 848000 CFU/mandrel
  Microbial Reduction (Log/mandrel): 0.00 Log/mandrel
[2]; 3.12 percent H2O2, time 10 min
  Microbial Load (CFU/mandrel): 187000 CFU/mandrel
  Microbial Reduction (Log/mandrel): 0.66 Log/mandrel
[2]; 3.12 percent H2O2, time 20 min
  Microbial Load (CFU/mandrel): 33400 CFU/mandrel
  Microbial Reduction (Log/mandrel): 1.40 Log/mandrel
[2]; 3.12 percent H2O2, time 30 min
  Microbial Load (CFU/mandrel): 14100 CFU/mandrel
  Microbial Reduction (Log/mandrel): 1.78 Log/mandrel
[2]; 3.12 percent H2O2, time 40 min
  Microbial Load (CFU/mandrel): 2180 CFU/mandrel
  Microbial Reduction (Log/mandrel): 2.59 Log/mandrel
[2]; 5.77 percent H2O2, time 0 min
  Microbial Load (CFU/mandrel): 566000 CFU/mandrel
  Microbial Reduction (Log/mandrel): 0.00 Log/mandrel
[2]; 5.77 percent H2O2, time 10 min
  Microbial Load (CFU/mandrel): 107000 CFU/mandrel
  Microbial Reduction (Log/mandrel): 0.72 Log/mandrel
[2]; 5.77 percent H2O2, time 20 min
  Microbial Load (CFU/mandrel): 7300 CFU/mandrel
  Microbial Reduction (Log/mandrel): 1.89 Log/mandrel
[2]; 5.77 percent H2O2, time 30 min
  Microbial Load (CFU/mandrel): 42 CFU/mandrel
  Microbial Reduction (Log/mandrel): 4.13 Log/mandrel
[2]; 5.77 percent H2O2, time 40 min
  Microbial Load (CFU/mandrel): 4 CFU/mandrel
  Microbial Reduction (Log/mandrel): 5.15 Log/mandrel
[2]; 9.55 percent H2O2, time 0 min
  Microbial Load (CFU/mandrel): 483000 CFU/mandrel
  Microbial Reduction (Log/mandrel): 0.00 Log/mandrel
[2]; 9.55 percent H2O2, time 5 min
  Microbial Load (CFU/mandrel): 71000 CFU/mandrel
  Microbial Reduction (Log/mandrel): 0.83 Log/mandrel
[2]; 9.55 percent H2O2, time 10 min
  Microbial Load (CFU/mandrel): 5750 CFU/mandrel
  Microbial Reduction (Log/mandrel): 1.92 Log/mandrel
[2]; 9.55 percent H2O2, time 20 min
  Microbial Load (CFU/mandrel): 106 CFU/mandrel
  Microbial Reduction (Log/mandrel): 3.66 Log/mandrel
[2]; 9.55 percent H2O2, time 30 min
  Microbial Load (CFU/mandrel): 8 CFU/mandrel
  Microbial Reduction (Log/mandrel): 4.78 Log/mandrel
[2]; 16.76 percent H2O2, time 0 min
  Microbial Load (CFU/mandrel): 1020667 CFU/mandrel
  Microbial Reduction (Log/mandrel): 0.00 Log/mandrel
[2]; 16.76 percent H2O2, time 5 min
  Microbial Load (CFU/mandrel): 52967 CFU/mandrel
  Microbial Reduction (Log/mandrel): 1.22 Log/mandrel
[2]; [4]
  Microbial Load (CFU/mandrel): 1273 CFU/mandrel
  Microbial Reduction (Log/mandrel): 2.81 Log/mandrel
[2]; [5]
  Microbial Load (CFU/mandrel): 30 CFU/mandrel
  Microbial Reduction (Log/mandrel): 4.53 Log/mandrel
[2]; [6]
  Microbial Load (CFU/mandrel): 8 CFU/mandrel
  Microbial Reduction (Log/mandrel): 5.20 Log/mandrel
[2]; [7]
  Microbial Load (CFU/mandrel): 4 CFU/mandrel
  Microbial Reduction (Log/mandrel): 5.21 Log/mandrel
[2]; 35 percent H2O2, time 0 min
  Microbial Load (CFU/mandrel): 799000 CFU/mandrel
  Microbial Reduction (Log/mandrel): 0.00 Log/mandrel
[2]; 35 percent H2O2, time 5 min
  Microbial Load (CFU/mandrel): 959 CFU/mandrel
  Microbial Reduction (Log/mandrel): 2.92 Log/mandrel
[2]; 35 percent H2O2, time 10 min
  Microbial Load (CFU/mandrel): 1 CFU/mandrel
[2]; 35 percent H2O2, time 15 min
  Microbial Load (CFU/mandrel): 1 CFU/mandrel
  Microbial Reduction (Log/mandrel): 5.90 Log/mandrel
[2]; 35 percent H2O2, time 20 min
  Microbial Load (CFU/mandrel): 1 CFU/mandrel
  Microbial Reduction (Log/mandrel): 5.90 Log/mandrel
[3]; time 0 min, cap
  average count of colony forming units for the time period: 4.82E+05 CFU/mandrel
  log of average count for the time period: 5.68 log
[3]; time 0 min, side tubes
  average count of colony forming units for the time period: 6.67E+05 CFU/mandrel
  log of average count for the time period: 5.82 log
[3]; [8]
  Average CFU/mL: 1.19E+05 CFU/mL and 1.23E+05 CFU/mL
  Average CFU/mandrel: 4.74E+05 CFU/mandrel and 4.90E+05 CFU/mandrel
  Log (of Average CFU/mandrel): 5.68 Log and 5.69 Log
  Result 1 CFU/mL: 1.24E+05 CFU/mL and 1.19E+05 CFU/mL
  Result #2 CFU/mL: 1.13E+05 CFU/mL and 1.26E+05 CFU/mL
[3]; [9]
  Log (of Average CFU/mandrel): 5.95 Log and 5.65 Log
  Result #2 CFU/mL: 2.09E+05 CFU/mL and 1.17E+05 CFU/mL
[3]; time 15 min, cap
  average count of colony forming units for the time period: 3.47E+05 CFU/mandrel
  log of average count for the time period: 5.54 log
[3]; time 15 min, side tubes
  average count of colony forming units for the time period: 4.02E+05 CFU/mandrel
  log of average count for the time period: 5.60 log
[3]; [10]
  Average CFU/mandrel: 2.62E+05 CFU/mandrel and 4.32E+05 CFU/mandrel
  Log (of Average CFU/mandrel): 5.42 Log and 5.64 Log
[3]; [11]
  Average CFU/mL: 1.01E+05 CFU/mL and 1.00E+05 CFU/mL
  Average CFU/mandrel: 4.04E+05 CFU/mandrel and 4.00E+05 CFU/mandrel
  Log (of Average CFU/mandrel): 5.61 Log and 5.60 Log
  Result 1 CFU/mL: 1.03E+05 CFU/mL and 1.06E+05 CFU/mL
  Result #2 CFU/mL: 9.90E+04 CFU/mL and 9.40E+04 CFU/mL
[3]; time 15 min relative to time zero, cap
  Log Red. (Avg): 0.14 Log
[3]; time 15 min relative to time zero, side tubes
  Log Red. (Avg): 0.22 Log
[3]; time 30 min, cap
  average count of colony forming units for the time period: 3.82E+05 CFU/mandrel
  log of average count for the time period: 5.58 log
[3]; time 30 min, side tubes
  average count of colony forming units for the time period: 4.34E+05 CFU/mandrel
  log of average count for the time period: 5.64 log
[3]; [12]
  Average CFU/mandrel: 2.66E+05 CFU/mandrel and 4.98E+05 CFU/mandrel
  Log (of Average CFU/mandrel): 5.42 Log and 5.70 Log
[3]; [13]
  Average CFU/mandrel: 4.74E+05 CFU/mandrel and 3.94E+05 CFU/mandrel
  Log (of Average CFU/mandrel): 5.68 Log and 5.60 Log
  Result #2 CFU/mL: 1.15E+05 CFU/mL and 1.08E+05 CFU/mL
[3]; time 30 min relative to time zero, cap
  Log Red. (Avg): 0.10 Log
[3]; time 30 min relative to time zero, side tubes
  Log Red. (Avg): 0.19 Log
[3]; time 45 min, cap
  average count of colony forming units for the time period: 6.31E+05 CFU/mandrel
  log of average count for the time period: 5.80 log
[3]; time 45 min, side tubes
  average count of colony forming units for the time period: 8.04E+05 CFU/mandrel
  log of average count for the time period: 5.91 log
[3]; [14]
  Average CFU/mL: 1.43E+05 CFU/mL and 1.73E+05 CFU/mL
  Average CFU/mandrel: 5.72E+05 CFU/mandrel and 6.90E+05 CFU/mandrel
  Log (of Average CFU/mandrel): 5.76 Log and 5.84 Log
  Result 1 CFU/mL: 1.51E+05 CFU/mL and 1.64E+05 CFU/mL
  Result #2 CFU/mL: 1.35E+05 CFU/mL and 1.81E+05 CFU/mL
[3]; [15]
  Average CFU/mL: 1.51E+05 CFU/mL and 2.52E+05 CFU/mL
  Log (of Average CFU/mandrel): 5.78 Log and 6.00 Log
  Result 1 CFU/mL: 1.67E+05 CFU/mL and 2.49E+05 CFU/mL
  Result #2 CFU/mL: 1.34E+05 CFU/mL and 2.54E+05 CFU/mL
[3]; time 45 min relative to time zero, cap
  Log Red. (Avg): −0.12 Log
[3]; time 45 min relative to time zero, side tubes
  Log Red. (Avg): −0.08 Log
[3]; time 60 min, cap
  average count of colony forming units for the time period: 3.24E+05 CFU/mandrel
  log of average count for the time period: 5.51 log
[3]; time 60 min, side tubes
  average count of colony forming units for the time period: 6.01E+05 CFU/mandrel
  log of average count for the time period: 5.78 log
[3]; [16]
  Average CFU/mL: 7.35E+04 CFU/mL and 8.85E+04 CFU/mL
  Average CFU/mandrel: 2.94E+05 CFU/mandrel and 3.54E+05 CFU/mandrel
  Log (of Average CFU/mandrel): 5.47 Log and 5.55 Log
  Result 1 CFU/mL: 6.30E+04 CFU/mL and 8.50E+04 CFU/mL
  Result #2 CFU/mL: 8.40E+04 CFU/mL and 9.20E+04 CFU/mL
[3]; [17]
  Average CFU/mL: 1.87E+05 CFU/mL and 1.14E+05 CFU/mL
  Average CFU/mandrel: 7.46E+05 CFU/mandrel and 4.56E+05 CFU/mandrel
  Log (of Average CFU/mandrel): 5.87 Log and 5.66 Log
  Result 1 CFU/mL: 2.10E+05 CFU/mL and 1.20E+05 CFU/mL
  Result #2 CFU/mL: 1.63E+05 CFU/mL and 1.08E+05 CFU/mL
[3]; time 60 min relative to time zero, cap
  Log Red. (Avg): 0.17 Log
[3]; time 60 min relative to time zero, side tubes
  Log Red. (Avg): 0.05 Log
